Reference: PubChem BioAssay AID1963854 (Molecular Pharmacology Branch, DTP, NCI, 2024)
Values joined by “and” are separate entries in the source; they are usually repeats but may differ in a detail not shown here. Identical values can stand only once.

Tested on: 186277-243-T-J2-PDC complex spheroid viability
Assay: Anticancer human tumor 186277-243-T-J2-PDC patient-derived colon adenocarcinoma cell line growth inhibition [POLQ]
Details: for viability, T/C: stronger effect = lower value
Method: Multicellular complex tumor spheroid response to Polymerase (POL) inhibitors (novobiocin, ART-558, RP6685) in combination with a variety of drugs and investigational agents in selected tumor cell lines
The POL inhibitors (novobiocin, ART-558, and RP6685) were evaluated both individually and in combination with standard of care and investigational anticancer small molecules within a complex spheroid model of solid tumors. . Complex spheroids include a stromal component modeled by human endothelial cells (HUVEC) and fibroblasts modeled by human mesenchymal stem cells (MSCs). The concentration ranges selected for each drug and investigational agent were based upon clinically achievable concentrations if the clinical Cmax of the agent was known.
Compounds. The drugs and investigational agents: novobiocin (NSC847541), ART-558 (NSC835418), RP-6685 (NSC848927), peposertib (NSC802822), ceralasertib (NSC780249), elimusertib (NSC800525), camonsertib (NSC841442), AZD-1390 (NSC803789), olaparib (NSC753686), talazoparib (NSC767125), rucaparib (NSC756644), sotorasib (NSC818433), MRTX-1133 (NSC836407), SN-38 (NSC673596), topotecan (NSC609699), epotoside (NSC141540), doxorubicin (NSC123127), gemcitabine (NSC613327), 5-fluorouracil (NSC19893), paclitaxel (NSC125973), vemurafenib (NSC761431), MSA-2 (NSC828583), SN-011 (NSC837082), adavosertib (NSC754352), prexasertib (NSC758257), carboplatin (NSC241240) and oxaliplatin (NSC266046), were obtained from the National Cancer Institute (NCI) Developmental Therapeutics Program Chemical Repository (21). The FDA-approved anticancer drug set is available from the Developmental Therapeutics Program at https://dtp.cancer.gov/organization/dscb/obtaining/. […] The stock solutions were prepared in dimethyl sulfoxide (DMSO, Sigma-Aldrich, St. Louis, MO, cat. D2650), except for the platinum compounds which were prepared in saline (Quality Biological, Gaithersburg, MD, cat. 114-055-101), at 800-fold the tested concentration and stored at -70 degrees C prior to their use. All drugs and investigational agents were tested over a range starting from a high concentration at or near the clinical Cmax and decreasing in half-log increments. If the clinical Cmax for an agent had not been determined, the highest concentration tested was 10 microM, except for SN-38, which was tested at a high concentration of 1 microM.
Cell Culture. All cells were maintained in an incubator at 37 degrees C and 5% CO2 with 95% humidity. The PDC lines were cultured according to standard operating procedures established by the NCI PDMR (https://pdmr.cancer.gov). Table 3 of the manuscript, lists the cell lines along with the number of the three cell types plated to form the mct-spheroids and media for tumor cell growth. After thawing, all PDC lines, except 997537-175-T-J1-PDC and 415267-285-R-J2-PDC, were cultured in Matrigel-coated flasks prepared with a working solution of 1X Ham's F-12 nutrient mix, without supplementation (Thermo Fisher Scientific, cat. 11765054), 100 U/mL penicillin-streptomycin (Thermo Fisher Scientific, cat. 15140122), and 2.5% Matrigel (Corning Inc., Corning, NY, cat. 354248) for the first three passages. The two PDC lines 997537-175-T-J1-PDC and 415267-285-R-J2-PDC were cultured on uncoated flasks. The 857933-349-R-J2-PDC line was cultured in 6C/Colon 1B media containing advanced DMEM/F-12 (Thermo Fisher Scientific, cat. 12634028), 10 mM HEPES (Thermo Fisher Scientific, cat. 15630080), 1X GlutaMAX supplement (Thermo Fisher Scientific, cat. 35050061), 0.1 mg/mL primocin (InvivoGen, San Diego, CA, cat. ant-pm-2), 10% defined fetal bovine serum, heat inactivated (HyClone Laboratories Inc., Logan, UT, cat. SH30070.03HI), 50% L-WRN conditioned media (ATCC, cat. CRL-3276), 1.25 mM N-Acetyl-L-cysteine (Sigma-Aldrich, cat. A9165), 10 mM nicotinamide (Sigma-Aldrich, cat. N0636), 1X B-27 supplement (Thermo Fisher Scientific, cat. 17504044), 1X N-2 supplement (Thermo Fisher Scientific, cat. […]
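Note: spheroids exposed to compounds for seven days.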
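Throughout, for viability, T/C: 100% = DMSO vehicle control viability.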

`C=CCn1c(=O)c2cnc(Nc3ccc(N4CCN(C)CC4)cc3)nc2n1-c1cccc(C(C)(C)O)n1` was tested, and the viability, T/C (compound 0.00316 µM) was 95.7% and 86.8% and 99.2%, the viability, T/C (compound 0.01 µM) was 96% and 97.5% and 95.8% and the viability, T/C (compound 0.0316 µM) was 97.8% and 104% and 94.2%. For the same molecule, the viability, T/C (compound 0.1 µM) was 93.9% and 91.6% and 113%, the viability, T/C (compound 0.316 µM) was 13.8% and 27.6% and 28.5% and the viability, T/C (compound 1 µM) was 7.74% and 14.5% and 12.9%. For the same molecule, the IC50 (curve of compound) was 0.188 µM and 0.211 µM and 0.224 µM.

For `CC[C@@]1(O)C(=O)OCc2c1cc1n(c2=O)Cc2cc3c(CN(C)C)c(O)ccc3nc2-1` + COC1C(OC(N)=O)C(O)C(Oc2ccc3c(O)c(NC(=O)c4ccc(O)c(CC=C(C)C)c4)c(=O)oc3c2C)OC1(C)C, the IC50 (curve of first compound, second compound 0.0316 µM) was 0.0699 µM, the IC50 (curve of first compound, second compound 0.1 µM) was 0.0607 µM and the IC50 (curve of first compound, second compound 0.316 µM) was 0.0525 µM. The IC50 (curve of first compound, second compound 1 µM) was 0.0487 µM, the IC50 (curve of first compound, second compound 3.16 µM) was 0.0485 µM and the IC50 (curve of first compound, second compound 10 µM) was 0.048 µM. It also gave a viability, T/C (second compound 0.0316 µM, first compound 0.000316 µM) of 105%, a viability, T/C (second compound 0.0316 µM, first compound 0.001 µM) of 103% and a viability, T/C (second compound 0.0316 µM, first compound 0.00316 µM) of 97.4%. For the same molecule, the viability, T/C (second compound 0.0316 µM, first compound 0.01 µM) was 114%, the viability, T/C (second compound 0.0316 µM, first compound 0.0316 µM) was 65.5% and the viability, T/C (second compound 0.0316 µM, first compound 0.1 µM) was 43%. For the same molecule, the viability, T/C (second compound 0.1 µM, first compound 0.000316 µM) was 96.1%, the viability, T/C (second compound 0.1 µM, first compound 0.001 µM) was 99.1% and the viability, T/C (second compound 0.1 µM, first compound 0.00316 µM) was 117%. For the same molecule, the viability, T/C (second compound 0.1 µM, first compound 0.01 µM) was 115%, the viability, T/C (second compound 0.1 µM, first compound 0.0316 µM) was 60.4% and the viability, T/C (second compound 0.1 µM, first compound 0.1 µM) was 42%. It also gave a viability, T/C (second compound 0.316 µM, first compound 0.000316 µM) of 101%, a viability, T/C (second compound 0.316 µM, first compound 0.001 µM) of 113% and a viability, T/C (second compound 0.316 µM, first compound 0.00316 µM) of 104%. The viability, T/C (second compound 0.316 µM, first compound 0.01 µM) was 109%, the viability, T/C (second compound 0.316 µM, first compound 0.0316 µM) was 57.9% and the viability, T/C (second compound 0.316 µM, first compound 0.1 µM) was 40%. The viability, T/C (second compound 1 µM, first compound 0.000316 µM) was 105%, the viability, T/C (second compound 1 µM, first compound 0.001 µM) was 105% and the viability, T/C (second compound 1 µM, first compound 0.00316 µM) was 97.1%. It also gave a viability, T/C (second compound 1 µM, first compound 0.01 µM) of 120%, a viability, T/C (second compound 1 µM, first compound 0.0316 µM) of 57% and a viability, T/C (second compound 1 µM, first compound 0.1 µM) of 38.5%. The viability, T/C (second compound 3.16 µM, first compound 0.000316 µM) was 97.3%, the viability, T/C (second compound 3.16 µM, first compound 0.001 µM) was 107% and the viability, T/C (second compound 3.16 µM, first compound 0.00316 µM) was 102%. It also gave a viability, T/C (second compound 3.16 µM, first compound 0.01 µM) of 107%, a viability, T/C (second compound 3.16 µM, first compound 0.0316 µM) of 56.6% and a viability, T/C (second compound 3.16 µM, first compound 0.1 µM) of 38.9%. For the same molecule, the viability, T/C (second compound 10 µM, first compound 0.000316 µM) was 107%, the viability, T/C (second compound 10 µM, first compound 0.001 µM) was 119% and the viability, T/C (second compound 10 µM, first compound 0.00316 µM) was 104%. It also gave a viability, T/C (second compound 10 µM, first compound 0.01 µM) of 110%, a viability, T/C (second compound 10 µM, first compound 0.0316 µM) of 56.3% and a viability, T/C (second compound 10 µM, first compound 0.1 µM) of 38.9%.

With `COC1C(OC(N)=O)C(O)C(Oc2ccc3c(O)c(NC(=O)c4ccc(O)c(CC=C(C)C)c4)c(=O)oc3c2C)OC1(C)C` (configuration not stated) the viability, T/C (compound 0.0316 µM) was 99.1% [middle of 13 runs], the viability, T/C (compound 0.1 µM) was 97.7% [middle of 13 runs] and the viability, T/C (compound 0.316 µM) was 97.7% [middle of 13 runs]. For the same molecule, the viability, T/C (compound 3.16 µM) was 103% [middle of 13 runs], the viability, T/C (compound 10 µM) was 92.6% [middle of 13 runs] and the IC50 (compound alone, run of 10/31/2023) was over 10 µM.

In the case of `CC1COCCN1c1cc(C2(S(C)(=N)=O)CC2)nc(-c2ccnc3[nH]ccc23)n1` (configuration not stated), the viability, T/C (compound 0.0316 µM) is reported as 97.6% and 101% and 100%, the viability, T/C (compound 0.1 µM) is reported as 110% and 107% and 101% and the viability, T/C (compound 0.316 µM) is reported as 102% and 106% and 112%. The viability, T/C (compound 1 µM) was 38% and 82.3% and 42.9%, the viability, T/C (compound 3.16 µM) was 7.52% and 14% and 6.48% and the viability, T/C (compound 10 µM) was 5.94% and 9.28% and 6.22%. The IC50 (curve of compound) was 0.805 µM and 1.72 µM and 0.876 µM.
